Structures are written as SMILES.

For orientation: Ki means a measure of affinity in units of concentration, obtained from inhibition or displacement. Read a high Ki as weaker binding.

The test has as its target T1, glucocorticoid receptor (Homo sapiens, UniProt P04150).
T1 construct: endogenous in cells; ATCC cat
T1 sequence (P04150 1-777): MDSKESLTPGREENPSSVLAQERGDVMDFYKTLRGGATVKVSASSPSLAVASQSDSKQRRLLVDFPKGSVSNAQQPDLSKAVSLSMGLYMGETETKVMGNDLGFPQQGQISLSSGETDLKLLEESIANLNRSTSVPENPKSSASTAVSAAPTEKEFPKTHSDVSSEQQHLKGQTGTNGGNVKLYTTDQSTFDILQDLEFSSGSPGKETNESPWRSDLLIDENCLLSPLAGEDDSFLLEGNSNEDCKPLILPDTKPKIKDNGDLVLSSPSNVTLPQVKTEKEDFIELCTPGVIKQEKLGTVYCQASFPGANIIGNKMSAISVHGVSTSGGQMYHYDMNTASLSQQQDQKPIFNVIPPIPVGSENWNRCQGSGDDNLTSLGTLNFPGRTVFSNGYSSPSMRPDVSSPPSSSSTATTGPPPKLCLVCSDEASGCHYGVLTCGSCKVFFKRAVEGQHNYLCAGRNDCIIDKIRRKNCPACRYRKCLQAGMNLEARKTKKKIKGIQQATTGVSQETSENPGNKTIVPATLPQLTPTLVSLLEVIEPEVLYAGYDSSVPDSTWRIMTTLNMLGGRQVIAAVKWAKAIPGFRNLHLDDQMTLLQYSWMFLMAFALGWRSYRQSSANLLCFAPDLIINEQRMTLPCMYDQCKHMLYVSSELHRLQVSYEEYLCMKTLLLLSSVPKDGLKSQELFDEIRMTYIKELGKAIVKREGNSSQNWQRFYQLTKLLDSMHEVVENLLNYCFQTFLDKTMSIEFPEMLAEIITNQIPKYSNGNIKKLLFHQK
Description: Hep G2 TAT Ki: inhibition of dexamethasone-induced TAT in HepG2 cells (96 well). It is filed as cell-based. Conditions: challenge of 100 nM dexamethasone, IC50 converted to Ki by Cheng and Prusoff equation. The gist of the method:
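Cells lysed 15 min at 4 °C; TAT enzyme reaction 2 h at 37 °C, stopped with KOH, 30 min further at 37 °C. Inhibition fitted to 4-parameter logistic.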
As for `COc1ccc(S(=O)(=O)N2CCN(CC(C)C)C(c3cc4cnn(-c5ccc(F)cc5)c4cc3C)C2)cn1` (single isomer, unassigned) [Example 103, 1-(4-fluorophenyl)-5-(1-isobutyl-4-((6-methoxypyridin-3-yl)sulfonyl)piperazin-2-yl)-6-methyl-1H-indazole], the Ki turned out to be 35 nM. This counts as double-digit nanomolar. `Cc1ccc(S(=O)(=O)N2CCN(CC(C)C)C(c3cc4cnn(-c5ccc(F)cc5)c4cc3C)C2)cn1` (single isomer, unassigned) [Example 104, 1-(4-fluorophenyl)-5-(1-isobutyl-4-((6-methylpyridin-3-yl)sulfonyl)piperazin-2-yl)-6-methyl-1H-indazole] registered a Ki of 19 nM. The same measure for `Cc1cc2c(cnn2-c2ccc(F)cc2)cc1C1CN(S(=O)(=O)c2cccnc2C(F)(F)F)CCN1CC(C)C` (single isomer, unassigned) [Example 105, 1-(4-fluorophenyl)-5-(1-isobutyl-4-((2-(trifluoromethyl)pyridin-3-yl)sulfonyl)piperazin-2-yl)-6-methyl-1H-indazole]: 46 nM; for `Cc1cc2c(cnn2-c2ccc(F)cc2)cc1C1CN(S(=O)(=O)CC(F)(F)F)CCN1CC(C)C` (single isomer, unassigned) [Example 106, 1-(4-fluorophenyl)-5-(1-isobutyl-4-((2,2,2-trifluoroethyl)sulfonyl)piperazin-2-yl)-6-methyl-1H-indazole]: 33 nM. In the case of `Cc1cc2c(cnn2-c2ccc(F)cc2)cc1C1CN(S(=O)(=O)c2cccnc2C#N)CCN1CC(C)C` (single isomer, unassigned) [Example 107, 3-((3-(1-(4-fluorophenyl)-6-methyl-1H-indazol-5-yl)-4-isobutylpiperazin-1-yl)sulfonyl)picolinonitrile] it was 22 nM; in that of `Cc1cc2c(cnn2-c2ccc(F)cc2)cc1C1CN(S(=O)(=O)CCOC(C)C)CCN1CC(C)C` (single isomer, unassigned) [Example 108, 1-(4-fluorophenyl)-5-(1-isobutyl-4-((2-isopropoxyethyl)sulfonyl)piperazin-2-yl)-6-methyl-1H-indazole], 44 nM; in that of `Cc1cc2c(cnn2-c2ccc(F)cc2)cc1C1CN(S(=O)(=O)c2nccs2)CCN1CC(C)C` (single isomer, unassigned) [Example 109, 2-((3-(1-(4-fluorophenyl)-6-methyl-1H-indazol-5-yl)-4-isobutylpiperazin-1-yl)sulfonyl)thiazole], 12 nM. The same measure for `Cc1cc2c(cnn2-c2ccc(F)cc2)cc1C1CN(S(=O)(=O)c2cnn(CC(F)(F)F)c2)CCN1CC(C)C` (single isomer, unassigned) [Example 110, 1-(4-fluorophenyl)-5-(1-isobutyl-4-((1-(2,2,2-trifluoroethyl)-1H-pyrazol-4-yl)sulfonyl)piperazin-2-yl)-6-methyl-1H-indazole]: 27 nM. Compound `Cc1cc2c(cnn2-c2ccc(F)cc2)cc1C1CN(S(=O)(=O)C2COC2)CCN1CC(C)C` (single isomer, unassigned) [Example 111, 1-(4-fluorophenyl)-5-(1-isobutyl-4-(oxetan-3-ylsulfonyl)piperazin-2-yl)-6-methyl-1H-indazole] displayed a Ki of 65 nM.

In turn, `Cc1cc2c(cnn2-c2ccc(F)cc2)cc1C1CN(S(=O)(=O)c2cnccc2C)CCN1CC(C)C` (single isomer, unassigned) [Example 112, 1-(4-fluorophenyl)-5-(1-isobutyl-4-((4-methylpyridin-3-yl)sulfonyl)piperazin-2-yl)-6-methyl-1H-indazole] showed an inhibition constant (Ki) of 36 nM. The same measure for `Cc1cc2c(cnn2-c2ccc(F)cc2)cc1C1CN(S(=O)(=O)Cc2ccc(C#N)cc2)CCN1CC(C)C` (single isomer, unassigned) [Example 114, 4-(((3-(1-(4-fluorophenyl)-6-methyl-1H-indazol-5-yl)-4-isobutylpiperazin-1-yl)sulfonyl)methyl)benzonitrile]: 55 nM; for `Cc1cc2c(cnn2-c2ccc(F)cc2)cc1C1CN(S(=O)(=O)c2ccccn2)CCN1CC(C)C` (single isomer, unassigned) [Example 115, 1-(4-fluorophenyl)-5-(1-isobutyl-4-(pyridin-2-ylsulfonyl)piperazin-2-yl)-6-methyl-1H-indazole]: 24 nM. The same measure for `Cc1cc2c(cnn2-c2ccc(F)cc2)cc1C1CN(S(=O)(=O)C2CCC2)CCN1CC(C)C` (single isomer, unassigned) [Example 116, 5-(4-(cyclobutylsulfonyl)-1-isobutylpiperazin-2-yl)-1-(4-fluorophenyl)-6-methyl-1H-indazole]: 25 nM; for `Cc1cc2c(cnn2-c2ccc(F)cc2)cc1C1CN(S(=O)(=O)c2ccc(C#N)nc2)CCN1CC(C)C` (single isomer, unassigned) [Example 117, 5-((3-(1-(4-fluorophenyl)-6-methyl-1H-indazol-5-yl)-4-isobutylpiperazin-1-yl)sulfonyl)picolinonitrile]: 38 nM; for `Cc1cc2c(cnn2-c2ccc(F)cc2)cc1C1CN(S(=O)(=O)c2cnn(C)n2)CCN1CC1CNC(=O)C1` (single isomer, unassigned) [Example 118, 4-((2-(1-(4-fluorophenyl)-6-methyl-1H-indazol-5-yl)-4-((2-methyl-2H-1,2,3-triazol-4-yl)sulfonyl)piperazin-1-yl)methyl)pyrrolidin-2-one]: 190 nM. The same measure for `Cc1cc2c(cnn2-c2ccc(F)cc2)cc1C1CN(S(=O)(=O)c2cnn(C)n2)CCN1CC1CC(C)(C)C1` (single isomer, unassigned) [Example 119, 5-(1-((3,3-dimethylcyclobutyl)methyl)-4-((2-methyl-2H-1,2,3-triazol-4-yl)sulfonyl)piperazin-2-yl)-1-(4-fluorophenyl)-6-methyl-1H-indazole]: 19 nM; for `Cc1cc2c(cnn2-c2ccc(F)cc2)cc1C1CN(S(=O)(=O)c2cnn(C)n2)CCN1CC1CCCO1` (single isomer, unassigned) [Example 120, 1-(4-fluorophenyl)-6-methyl-5-(4-((2-methyl-2H-1,2,3-triazol-4-yl)sulfonyl)-1-((tetrahydrofuran-2-yl)methyl)piperazin-2-yl)-1H-indazole]: 65 nM; for `Cc1cc2c(cnn2-c2ccc(F)cc2)cc1C1CN(S(=O)(=O)c2cnn(C)n2)CCN1CC1CC(=O)N(C)C1` (single isomer, unassigned) [Example 121, 4-((2-(1-(4-fluorophenyl)-6-methyl-1H-indazol-5-yl)-4-((2-methyl-2H-1,2,3-triazol-4-yl)sulfonyl)piperazin-1-yl)methyl)-1-methylpyrrolidin-2-one]: 270 nM.

As to `CC[C@H](C)N1CCN(S(=O)(=O)c2cnn(C)n2)C[C@@H]1c1cc2cnn(-c3ccc(F)cc3)c2cc1C` (single isomer, unassigned) [Example 123, 5-(1-(sec-butyl)-4-((2-methyl-2H-1,2,3-triazol-4-yl)sulfonyl)piperazin-2-yl)-1-(4-fluorophenyl)-6-methyl-1H-indazole], the affinity corresponds to a Ki of 71 nM.

For `Cc1ncc(S(=O)(=O)N2CCN(CC3CCC3)C(c3cc4cnn(-c5ccc(F)cc5)c4cc3C)C2)s1` (single isomer, unassigned) [Example 124, 5-((4-(cyclobutylmethyl)-3-(1-(4-fluorophenyl)-6-methyl-1H-indazol-5-yl)piperazin-1-yl)sulfonyl)-2-methylthiazole], the affinity corresponds to a Ki of 14 nM. In the case of `CC(=O)CN1CCN(S(=O)(=O)c2cnn(C)n2)CC1c1cc2cnn(-c3ccc(F)cc3)c2cc1C` (single isomer, unassigned) [Example 125, 1-(2-(1-(4-fluorophenyl)-6-methyl-1H-indazol-5-yl)-4-((2-methyl-2H-1,2,3-triazol-4-yl)sulfonyl)piperazin-1-yl)propan-2-one] it was 87 nM; in that of `Cc1cc2c(cnn2-c2ccc(F)cc2)cc1[C@H]1CN(S(=O)(=O)c2cnn(C)n2)C[C@@H](C)N1CC(C)C` (single isomer, unassigned) [Example 126], 62 nM. The same measure for `Cc1cc2c(cnn2-c2ccc(F)cc2)cc1C1CN(S(=O)(=O)c2cnn(C)c2)CCN1CCC(F)(F)F` (single isomer, unassigned) [Example 128, 1-(4-fluorophenyl)-6-methyl-5-(4-((1-methyl-1H-pyrazol-4-yl)sulfonyl)-1-(3,3,3-trifluoropropyl)piperazin-2-yl)-1H-indazole]: 14 nM.

The compound `Cc1cc2c(cnn2-c2ccc(F)cc2)cc1C1CN(S(=O)(=O)c2cnn(C)c2C)CCN1CCC(F)(F)F` (single isomer, unassigned) [Example 129, 5-(4-((1,5-dimethyl-1H-pyrazol-4-yl)sulfonyl)-1-(3,3,3-trifluoropropyl)piperazin-2-yl)-1-(4-fluorophenyl)-6-methyl-1H-indazole] gave an inhibition constant Ki of 13 nM.

Source of the values: patent US12098144B2, “Piperazine indazole glucocorticoid receptor antagonists” (Corcept Therapeutics Incorporated, priority 2021, dated 2024).
